Assay results taken from patent publication US8592172B2, “Bioluminescent assays using cyanobenzothiazole compounds” (Promega Corporation, priority 2010, dated 2013).

Tested on: CYP1A2
Experiment: Non-lytic assay with rat hepatocytes, compound 3019
Type: cell-based
Settings: 10 nM TCDD 48 hours, 3 μM compound 3019

Compound: Clc1cc2c(cc1Cl)Oc1cc(Cl)c(Cl)cc1O2 [TCDD, 2,3,7,8-tetrachlorodibenzo-p-dioxin]
- change of basal signal (CYP1A2 induction): significantly increased
